Measured values reported in patent US20240423914A1, “AMIDE CONTAINING LIPIDS” (Acuitas Therapeutics, Inc., priority 2023, published 2024).

System: human IgG in mouse serum
Assay: Immunoglobulin G (IgG) mRNA in vivo evaluation using lipid nanoparticle compositions (human IgG ELISA of mouse serum)
Parameters: species or system CD-1/ICR mice
Settings: lipid formulated as LNP (cationic lipid/DSPC/cholesterol/PEG lipid) with IgG mRNA, tail vein injection, mice, serum measured 24 hours after administration; for Serum IgG (ug/mL) @ 0.3 mg/kg: 0.3 mg mRNA/kg; for Serum IgG (ug/mL) @ 1.0 mg/kg: 1.0 mg mRNA/kg
Procedure: A lipid of Formula (I), DSPC, cholesterol and PEG-lipid of Formula (II) are solubilized in ethanol at a molar ratio of 50:10:38.5:1.5 or 47.5:10:40.7:1.8. Lipid nanoparticles (LNP) are prepared at a total lipid to mRNA weight ratio of approximately 10:1 to 40:1. Briefly, the mRNA is diluted to 0.2 mg/mL in 10 to 50 mM citrate buffer, pH 4 to 6 or 10 to 25 mM acetate buffer, pH 4 to 6. Syringe pumps are used to mix the ethanolic lipid solution with the mRNA aqueous solution at a ratio of about 1:5 to 1:3 (vol/vol) with total flow rates above 15 mL/min. The ethanol is then removed, and the external buffer replaced with PBS by dialysis. Finally, the lipid nanoparticles are filtered through a 0.2 μm pore sterile filter.
Studies are performed in 6-8-week-old CD-1/ICR mice (Charles River or Inotiv) according to guidelines established by an institutional animal care committee (ACC) and the Canadian Council on Animal Care (CCAC). Varying doses of mRNA-lipid nanoparticle are systemically administered by tail vein injection and animals euthanized at a specific time point (e.g., 24 hours) post-administration. The whole blood is collected, and the serum subsequentially separated by centrifuging the tubes of the whole blood at 2000×g for 10 minutes at 4° C. and stored at −80° C. until use for analysis.
For immunoglobulin G (IgG) ELISA (Life Diagnostics Human IgG ELISA kit), the serum samples are diluted at 100 to 20,000 fold with 1× diluent solution. 100 μL of diluted serum is dispensed into anti-human IgG coated 96-well plate in duplicate alongside human IgG standards and incubated in a plate shaker at 150 rpm at 25° C. for 45 minutes. The wells are washed 5 times with 1× wash solution using a plate washer (400 μL/well). 100 μL of HRP conjugate is added into each well and incubated in a plate shaker at the same condition above. The wells are washed 5 times again with 1× wash solution using a plate washer (400 μL/well). 100 μL of TMB reagent is added into each well and incubated in a plate shaker at the same condition above. The reaction is stopped by adding 100 μL of Stop solution to each well. The absorbance is read at 450 nm (A450) with a microplate reader. The amount of human IgG in mouse serum is determined by plotting A450 values for the assay standard against human IgG concentration.
Representative compounds of the disclosure shown in Table 2 were formulated using the following molar ratio: 50% cationic lipid/10% distearoylphosphatidylcholine (DSPC)/38.5% Cholesterol/1.5% PEG lipid 2-[2-(ω-methoxy(polyethyleneglycol2000)ethoxy]-N,N-ditetradecylacetamide) or 47.5% cationic lipid/10% DSPC/40.7% Cholesterol/1.8% PEG lipid. Relative activity was determined by measuring the amount of human IgG in mouse serum as described in Example 2. The activity was compared at a dose of 1.0 or 0.3 mg mRNA/kg and expressed as ng luciferase/g liver measured 4 hours after administration, as described in Example 1 or as μg IgG/mL serum measured 24 hours after administration, as described in Example 2. Compound numbers in Table 2 refer to the compound numbers of Table 1.

Row | Structure (SMILES) | Serum IgG (ug/mL) @ 0.3 mg/kg [µg/mL] | Serum IgG (ug/mL) @ 1.0 mg/kg [µg/mL]
1 | CCCCCCCCCCN(CCCCCCCCCC)C(=O)CCCCCCCN(CCCCCCCC(=O)N(CCCCCCCCCC)CCCCCCCCCC)C(=O)CN(C)C [Compound I-4, N,N-didecyl-8-(N-(8-(didecylamino)-8-oxooctyl)-2-(dimethylamino)acetamido)octanamide] | 24.2 ± 4.5 | –
2 | CCCCCCCCCCN(CCCCCCCCCC)C(=O)CCCCCCCCC(CCCCCCCCC(=O)N(CCCC)C(CCCCCCCC)CCCCCCCC)N(CCCCCCCCCC)C(=O)CCN(C)C (stereo not shown) [Compound I-17, N^1-butyl-N^19,N^19-didecyl-10-(n-decyl-3-(dimethylamino)propanamido)-N-(heptadecan-9-yl)nonadecanediamide] | 10.1 ± 4.03 | –
3 | CCCCCCCCCCN(CCCCCCCCCC)C(=O)CCCCCC(CCCCCC(=O)N(CCCCCCCCCC)CCCCCCCCCC)OC(=O)CCCN(C)C [Compound I-18, 1,13-bis(didecylamino)-1,13-dioxotridecan-7-yl 4-(dimethylamino)butanoate] | 18.0 ± 2.0 | –
4 | CCCCCCCCCCN(CCCCCCCCCC)C(=O)CCCCCCCN(CCCCCCCC(=O)N(CCCCCCCCCC)CCCCCCCCCC)C(=O)OCCN(C)C [Compound I-6, 2-(dimethylamino)ethyl bis(8-(didecylamino)-8-oxooctyl)carbamate] | 20.5 ± 4.0 | 197.5 ± 39.3
5 | CCCCCCCCCCN(CCCCCCCCCC)C(=O)CCCCCCCCC(CCCCCCCCC(=O)N(CCCCCCCCCC)CCCCCCCCCC)N(CCCCCCCCCC)C(=O)CCN(C)C [Compound I-1, N^1,N^1,N^19,N^19-tetrakis(decyl)-10-(N-decyl-3-(dimethylamino)propanamido)nonadecanediamide] | 18.5 ± 6.7 | –
6 | CCCCCCCCCCN(CCCCCCCCCC)C(=O)CCCCCCCCC(CCCCCCCCC(=O)N(CCCCCCCCCC)CCCCCCCCCC)OC(=O)CCCN(C)C [Compound I-10, 1,19-bis(didecylamino)-1,19-dioxononadecan-10-yl 4-(dimethylamino)butanoate] | 19.0 ± 3.3 | –
7 | CCCCCCCCCCN(CCCCCCCCN(CCCCCCCC(=O)N(CCCCCCCCCC)CCCCCCCCCC)C(=O)C(F)CCN(C)C)C(=O)CCCCCCCCC (stereo not shown) [Compound I-3, N-decyl-N-(8-(N-(8-(didecylamino)-8-oxooctyl)-4-(dimethylamino)-2-fluorobutanamido)octyl)decanamide] | 16.2 ± 4.3 | 52.7 ± 8.4
8 | CCCCCCCCCCCCN(CCCCCCCCCCN(CCCCCCCCCCN(CCCCCCCCCCCC)C(=O)CCCCCCC)C(=O)OCCCN1CCCC1)C(=O)CCCCCCC [Compound I-20, 3-(pyrrolidin-1-yl)propyl bis(10-(n-dodecyloctanamido)decyl)carbamate] | 7.9 ± 3.6 | –
9 | CCCCCCCCCCN(CCCCCCCCCC)C(=O)CCCCCCCN(CCCCCCCC(=O)N(CCCCCCCCCC)CCCCCCCCCC)C(=O)OCCCN(C)C [Compound I-7, 3-(dimethylamino)propyl bis(8-(didecylamino)-8-oxooctyl)carbamate] | 30.8 ± 7.5 | –
10 | CCCCCCCCCCN(CCCCCCCCN(CCCCCCCC(=O)N(CCCCCCCCCC)CCCCCCCCCC)C(=O)CN(C)C)C(=O)CCCCCCCCC [Compound I-5, N-decyl-N-(8-(N-(8-(didecylamino)-8-oxooctyl)-2-(dimethylamino)acetamido)octyl)decanamide] | 25.9 ± 11.8 | 73.4 ± 14.9
11 | CCCCCCCCCCN(CCCCCCCCCC)C(=O)CCCCCCCCC(CCCCCCCCC(=O)N(CCCCCCCCCC)CCCCCCCCCC)OC(=O)CCCCN(C)C [Compound I-9, 1,19-bis(didecylamino)-1,19-dioxononadecan-10-yl 5-(dimethylamino)pentanoate] | 13.4 ± 7.5 | 59.5 ± 25.6
12 | CCCCCCCCCCN(CCCCCCCCCC)C(=O)CCCCCCCCCN(CCCCCCCCCC(=O)N(CCCCCCCCCC)CCCCCCCCCC)C(=O)OCCCN(C)C [Compound I-8, 3-(dimethylamino)propyl bis(10-(didecylamino)-10-oxodecyl)carbamate] | 10.6 ± 5.0 | –
13 | CCCCCCCCCCN(CCCCCCCCCC)C(=O)CCCCCCCN(CCCCCCCC(=O)N(CCCCCCCCCC)CCCCCCCCCC)C(=O)C(F)CCN(C)C (stereo not shown) [Compound I-2, N,N-didecyl-8-(N-(8-(didecylamino)-8-oxooctyl)-4-(dimethylamino)-2-fluorobutanamido)octanamide] | 23.2 ± 6.1 | 69.8 ± 18.2
14 | CCCCCCCCCCN(CCCCCCCCCC)C(=O)CCCCCCCCC(CCCCCCCCC(=O)N(CCCCCCCCCC)CCCCCCCCCC)N(CCCCCCCCCC)C(=O)C(F)CCCN(C)C (stereo not shown) [Compound I-12, N^1,N^1,N^19,N^19-tetrakis(decyl)-10-(n-decyl-5-(dimethylamino)-2-fluoropentanamido)nonadecanediamide] | 13.9 ± 4.7 | –
